Common to all, as to test: DTP human tumour cell line panel, 48 h
Test [1] relates to KM12.
The test system of test [2] is MDA-MB-435.
Test [3] has as its system TK-10.
Test [4] deals with DU-145.
The subject of test [5] is SK-MEL-2.
For test [6], the system named is ACHN.
Test [7] has as its system UO-31.
Test [8] deals with EKVX.
The subject of test [9] is CAKI-1.
Test [10] relates to SF-268.
For test [11], the system named is SNB-19.
The subject of test [12] is SN12C.
For test [13], the system named is SF-295.
Test [14] has as its system U-251.
Test [15] relates to NCI-H23.
Test [16] deals with A549.
The subject of test [17] is UACC-257.
Test [18] has as its system COLO 205.
The subject of test [19] is HOP-62.
The test system of test [20] is HCT-116.

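Protocol summary: plate cells (96-well), add compound at 5 concentrations, incubate 48 h, interpolate endpoints linearly. GI50: concentration for 50% inhibition of growth.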 Calls of active or inactive are those of the source. No stated cut-off is given here; in the data, active = GI50 up to about 1.1 µM and inactive = higher.

Broadly, the GI50 is the concentration at which growth is held to half of that of the control. For `CC(=O)/C(=C/n1c(=S)sc2ccccc21)C(=O)Nc1ccccc1C`, the GI50 in test [1], in test [2], in test [3], in test [4], in test [5] and in test [6] was > 100 µM (inactive) in each case. Also, the GI50 in test [7] is 79.6 µM (inactive); in test [8] it was > 100 µM (inactive); in test [9], 48 µM (inactive); in test [10] it was > 100 µM (inactive); in [11], > 100 µM (inactive); in [12] it was > 100 µM (inactive). The GI50 in test [13], in test [14], in test [15], in test [16], in [17] and in [18] was > 100 µM (inactive) each time. Further, the GI50 in [19] and in [20] was > 100 µM (inactive) each time.
For `CCCNc1[nH]c(C(C)=O)c(N)c1C(=S)Nc1ccccc1`, the GI50 in [1] was 34 µM (inactive); in [2], 21 µM (inactive); in test [3], 39.1 µM (inactive); in [4], 54.7 µM (inactive); in [5], 9.2 µM (inactive); in [6], 40.8 µM (inactive). In addition, the GI50 was 0.782 µM (active) in test [7]; 35.2 µM (inactive) in test [8]; 46.8 µM (inactive) in test [9]; 23.3 µM (inactive) in [10]; 38.4 µM (inactive) in test [11]; 32.8 µM (inactive) in [12]. Further, the GI50 in [13] is 43.3 µM (inactive); in test [14], 31.7 µM (inactive); in test [15], 41 µM (inactive); in test [16], 33.3 µM (inactive); in [17], 30.1 µM (inactive); in test [18] it was 31.6 µM (inactive). The GI50 in test [19] was 42 µM (inactive); in test [20], 34.8 µM (inactive).
Take `CC(Nc1ncc2c(n1)-c1ccccc1OC2)C(=O)O` (stereo not given): the GI50 in [1] was > 100 µM (inactive); in test [2], > 100 µM (inactive); in [3] it was > 100 µM (inactive); in test [4], 30.3 µM (inactive); in test [5] it was > 100 µM (inactive); in [6], > 100 µM (inactive). Further, the GI50 in [7] is 41.2 µM (inactive); in test [8], 44.1 µM (inactive); in test [9], 30.8 µM (inactive); in test [10], > 100 µM (inactive); in test [11], > 100 µM (inactive); in test [12], 59.7 µM (inactive). Also, the GI50 in test [13] is > 100 µM (inactive); in test [14] it was > 100 µM (inactive); in test [15], 86.5 µM (inactive); in test [16], > 100 µM (inactive); in test [17], 60.3 µM (inactive); in test [18], 35.6 µM (inactive). The GI50 in test [19] was 51.6 µM (inactive); in test [20], > 100 µM (inactive).
For the compound `Cn1cc(C=C(C#N)C#N)c(=O)n(C)c1=O`, the GI50 in [1], in test [2], in test [3], in test [4], in [5] and in test [6] was > 100 µM (inactive) throughout. For the same compound, the GI50 in [7], in test [8], in test [9], in test [10], in test [11] and in test [12] was > 100 µM (inactive) each time. Further, the GI50 in [13], in test [14], in test [15], in test [16], in test [17] and in test [18] was > 100 µM (inactive) in each case. The GI50 in test [19] and in [20] was > 100 µM (inactive) each time.
Take `c1ccc2c(c1)nc1n2CSCC1`: the GI50 in test [1], in test [2], in test [3], in test [4], in test [5] and in test [6] was > 100 µM (inactive) throughout. For the same compound, the GI50 in test [7], in test [8], in test [9], in [10], in test [11] and in test [12] was > 100 µM (inactive) each time. In addition, the GI50 in [13], in [14], in test [15], in test [16], in test [17] and in test [18] was > 100 µM (inactive) each time. Also, the GI50 in [19] and in test [20] was > 100 µM (inactive) each time.
For the compound `COc1ccc2c(c1)c1c3c(ccc4ncn2c43)N(CCO)CCN=1`, the concentration for 50% growth inhibition (GI50) in test [1] was 0.26 µM (active); in test [2] it was 0.234 µM (active); in test [3] it was 0.389 µM (active); in test [4], 0.282 µM (active); in test [5], 0.175 µM (active); in test [6], 0.146 µM (active). The GI50 is 0.104 µM (active) in test [7]; 0.33 µM (active) in test [8]; 0.247 µM (active) in test [9]; 0.221 µM (active) in test [10]; 0.234 µM (active) in test [11]; 0.158 µM (active) in test [12]. Besides, the GI50 in test [13] was 0.19 µM (active); in [14], 0.254 µM (active); in [15] it was 0.191 µM (active); in test [16], 0.218 µM (active); in test [17], 0.391 µM (active); in [18], 0.101 µM (active). Further, the GI50 in test [19] was 0.132 µM (active); in test [20], 0.0512 µM (active).
Consider `O=C1NCC2(CCN(CC3COc4ccccc4O3)CC2)N1c1ccccc1` (stereo not given), for which the GI50 in test [1], in test [2], in [3], in test [4], in test [5] and in test [6] was > 100 µM (inactive) throughout. Besides, the GI50 in [7], in test [8], in test [9], in test [10], in [11] and in test [12] was > 100 µM (inactive) throughout. The GI50 in test [13], in test [14], in [15], in test [16], in test [17] and in [18] was > 100 µM (inactive) each time. The GI50 in [19] and in test [20] was > 100 µM (inactive) in each case.
For the compound `c1ccc2c(c1)CCN2CCN1CCc2ccccc21`, the GI50 in test [1], in test [2], in test [3], in test [4], in test [5] and in test [6] was > 10 µM (inactive) throughout. The GI50 in [7], in test [8], in test [9], in [10], in [11] and in test [12] was > 10 µM (inactive) in each case. Further, the GI50 in test [13], in [14], in [15], in [16], in [17] and in [18] was > 10 µM (inactive) throughout. Also, the GI50 in test [19] and in test [20] was > 10 µM (inactive) each time.
Take `O=c1cc(CN2CCCCC2)nc2ccc3c(O)cc(CN4CCCCC4)nc3n12`: the GI50 in test [1], in test [2], in test [3], in [4], in test [5] and in test [6] was > 100 µM (inactive) in each case. In addition, the GI50 in [7], in [8], in test [9], in [10], in test [11] and in [12] was > 100 µM (inactive) throughout. For the same compound, the GI50 in [13] is > 100 µM (inactive); in test [14] it was > 100 µM (inactive); in test [15] it was > 100 µM (inactive); in test [16], > 100 µM (inactive); in test [17] it was 88.9 µM (inactive); in [18], > 100 µM (inactive). For the same compound, the GI50 in [19] and in test [20] was > 100 µM (inactive) in each case.
